Laboratory results: US20250041179A1, “ANTIMICROBIAL COMBINATIONS” (SYMRISE AG, priority 2021, published 2025)

Legend:
S. aureus [1] = test: Preservative efficacy test (Ph. Eur., adjusted inoculum) in O/W anionic emulsion; type: cell-based, Staphylococcus aureus; conditions: substance alone 0.5% w/w
Protocol: (§1) Material was tested in predesigned standardised cosmetic formulations either as oil-in-water anionic emulsion (Table 2), shampoo (Table 3), or wet wipe solution (Table 4). The antimicrobial actives were dissolved or mixed with the standardised cosmetic formulations, leading to the indicated test concentrations (in w/w %, cf. […] To determine synergistic indices, raw values for bacterial of fungal colony counts were used. [table] […] Steinberg D. C. (2000): Measuring Synergy. In Cosmetics & Toiletries, 115) was used: […]

E. coli [2] = test: as above; type: cell-based, Escherichia coli; conditions: substance alone 0.5% w/w
Protocol: as §1

P. aeruginosa = test: Preservative efficacy test (Ph. Eur., adjusted inoculum) in shampoo formulation; type: cell-based, Pseudomonas aeruginosa; conditions: substance alone 0.5% w/w
Protocol: (§2) Preservative efficacy tests were performed according to the European Pharmacopoeia with adjusted inoculation numbers (10^6-10^7 cells of suitable bacteria or fungi). Material was tested in predesigned standardised cosmetic formulations either as oil-in-water anionic emulsion (Table 2), shampoo (Table 3), or wet wipe solution (Table 4). The antimicrobial actives were dissolved or mixed with the standardised cosmetic formulations, leading to the indicated test concentrations (in w/w %, cf. Tables 5 to 12 below). To determine synergistic indices, raw values for bacterial of fungal colony counts were used.
(§3) [formula] • where • SI is the synergism index according to Kull • CA is the cell count for substance A (also “count A”) • CB is the cell count for substance B (also “count B”) • Cmixture is the cell count for the mixture of substance A and B (also “count mix”) • PA is the proportion of the substance A in the mixture in relation to the concentration tested alone • PB is the proportion of the substance B in the mixture in relation to the concentration tested alone

C. albicans = test: as above; type: cell-based, Candida albicans; conditions: substance alone 0.5% w/w
Protocol: as §2, §3

E. coli [3] = test: as above; type: cell-based, Escherichia coli; conditions: substance alone 0.5% w/w
Protocol: as §2
(§4) To calculate the synergism between the indicated antimicrobial actives (cf. preservative efficacy tests below), the Kull equation (Kull et al., Applied Microbiology 1961, 9 (6), pp. 538-541, DOI: 10.1128/am.9.6.538-541.1961.; Steinberg D. C. (2000): Measuring Synergy. In Cosmetics & Toiletries, 115) was used:
as §3

S. aureus [4] = test: as above; type: cell-based, Staphylococcus aureus
Protocol: as §2, §4, §3

A. brasiliensis = test: as above; type: cell-based, Aspergillus brasiliensis
Protocol: as §2, §3

## CCCCCCCC(=O)OCCCO [3-Hydroxypropyl caprylate, 3-hydroxypropyl caprylate]
S. aureus [1]
  Absolute cell counts 2 days: 2.10E+05
  Relative cell counts 2 days: 0.0382
  Absolute cell counts 7 days: 1.80E+02
  Relative cell counts 7 days: 0.0000
  Absolute cell counts 14 days: 1
  Relative cell counts 14 days: 0.0000
  Absolute cell counts 28 days: 1
  Relative cell counts 28 days: 0.0000
E. coli [2]
  Absolute cell counts 2 days: 3.30E+06
  Relative cell counts 2 days: 0.9706
  Absolute cell counts 7 days: 2.60E+04
  Relative cell counts 7 days: 0.0076
  Absolute cell counts 14 days: 1
  Relative cell counts 14 days: 0.0000
  Absolute cell counts 28 days: 1
  Relative cell counts 28 days: 0.0000
P. aeruginosa
  Absolute cell counts 2 days: 9.30E+04
  Relative cell counts 2 days: 0.0211
  Absolute cell counts 7 days: 9.50E+02
  Relative cell counts 7 days: 0.0002
  Absolute cell counts 14 days: 1
  Relative cell counts 14 days: 0.0000
  Absolute cell counts 28 days: 1
  Relative cell counts 28 days: 0.0000
C. albicans
  Absolute cell counts 2 days: 2.10E+03
  Relative cell counts 2 days: 0.0010
  Absolute cell counts 7 days: 1
  Relative cell counts 7 days: 0.0000
  Absolute cell counts 14 days: 1
  Relative cell counts 14 days: 0.0000
  Absolute cell counts 28 days: 1
  Relative cell counts 28 days: 0.0000
E. coli [3]
  Absolute cell counts 2 days: 1.80E+06
  Relative cell counts 2 days: 0.5806
  Absolute cell counts 7 days: 2.00E+06
  Relative cell counts 7 days: 0.6452
  Absolute cell counts 14 days: 1.70E+06
  Relative cell counts 14 days: 0.5484
  Absolute cell counts 28 days: 1.10E+06
  Relative cell counts 28 days: 0.3548
S. aureus [4]; substance alone 0.5% w/w
  Absolute cell counts 2 days: 1
  Relative cell counts 2 days: 0.0000
  Absolute cell counts 7 days: 1
  Relative cell counts 7 days: 0.0000
  Absolute cell counts 14 days: 1
  Relative cell counts 14 days: 0.0000
  Absolute cell counts 28 days: 1
  Relative cell counts 28 days: 0.0000
A. brasiliensis; substance alone 0.5% w/w
  Absolute cell counts 2 days: 3.00E+06
  Relative cell counts 2 days: 0.9091
  Absolute cell counts 7 days: 3.80E+06
  Relative cell counts 7 days: 1.1515
  Absolute cell counts 14 days: 4.50E+06
  Relative cell counts 14 days: 1.3636
  Absolute cell counts 28 days: 8.10E+05
  Relative cell counts 28 days: 0.2455

## CC(C)(C)C(=O)C(Oc1ccc(Cl)cc1)n1ccnc1 (stereo not shown) [Climbazole, climbazole, reference compound]
A. brasiliensis; substance alone 0.5% w/w
  Absolute cell counts 2 days: 1.50E+05
  Relative cell counts 2 days: 0.0366
  Absolute cell counts 7 days: 6.20E+04
  Relative cell counts 7 days: 0.0151
  Absolute cell counts 14 days: 5.90E+04
  Relative cell counts 14 days: 0.0144
  Absolute cell counts 28 days: 4.60E+04
  Relative cell counts 28 days: 0.0112

## Cc1cc(CC(C)CC(C)(C)C)n(O)c(=O)c1.NCCO (stereo not shown) [Piroctone olamine, piroctone olamine, reference compound]
S. aureus [1]
  Absolute cell counts 2 days: 2.50E+06
  Relative cell counts 2 days: 0.7813
  Absolute cell counts 7 days: 3.80E+04
  Relative cell counts 7 days: 0.0119
  Absolute cell counts 14 days: 1
  Relative cell counts 14 days: 0.0000
  Absolute cell counts 28 days: 1
  Relative cell counts 28 days: 0.0000
E. coli [2]
  Absolute cell counts 2 days: 1
  Relative cell counts 2 days: 0.0000
  Absolute cell counts 7 days: 1
  Relative cell counts 7 days: 0.0000
  Absolute cell counts 14 days: 1
  Relative cell counts 14 days: 0.0000
  Absolute cell counts 28 days: 1
  Relative cell counts 28 days: 0.0000
P. aeruginosa
  Absolute cell counts 2 days: 1
  Relative cell counts 2 days: 0.0000
  Absolute cell counts 7 days: 1
  Relative cell counts 7 days: 0.0000
  Absolute cell counts 14 days: 1
  Relative cell counts 14 days: 0.0000
  Absolute cell counts 28 days: 1
  Relative cell counts 28 days: 0.0000
C. albicans
  Absolute cell counts 2 days: 1
  Relative cell counts 2 days: 0.0000
  Absolute cell counts 7 days: 1
  Relative cell counts 7 days: 0.0000
  Absolute cell counts 14 days: 1
  Relative cell counts 14 days: 0.0000
  Absolute cell counts 28 days: 1
  Relative cell counts 28 days: 0.0000

## C/C=C/C=C/C(=O)[O-].[K+] [Potassium Sorbate, potassium sorbate]
A. brasiliensis; substance alone 0.5% w/w
  Absolute cell counts 2 days: 1.40E+04
  Relative cell counts 2 days: 0.0034
  Absolute cell counts 7 days: 1
  Relative cell counts 7 days: 0.0000
  Absolute cell counts 14 days: 1
  Relative cell counts 14 days: 0.0000
  Absolute cell counts 28 days: 1
  Relative cell counts 28 days: 0.0000

## O=C(O)c1ccccc1O [Salicylic Acid, salicylic acid, reference compound]
P. aeruginosa
  Absolute cell counts 2 days: 1
  Relative cell counts 2 days: 0.0000
  Absolute cell counts 7 days: 1
  Relative cell counts 7 days: 0.0000
  Absolute cell counts 14 days: 1
  Relative cell counts 14 days: 0.0000
  Absolute cell counts 28 days: 1
  Relative cell counts 28 days: 0.0000
C. albicans
  Absolute cell counts 2 days: 7.30E+01
  Relative cell counts 2 days: 0.0000
  Absolute cell counts 7 days: 1
  Relative cell counts 7 days: 0.0000
  Absolute cell counts 14 days: 1
  Relative cell counts 14 days: 0.0000
  Absolute cell counts 28 days: 1
  Relative cell counts 28 days: 0.0000
E. coli [3]
  Absolute cell counts 2 days: 9.50E+03
  Relative cell counts 2 days: 0.0021
  Absolute cell counts 7 days: 7.20E+03
  Relative cell counts 7 days: 0.0016
  Absolute cell counts 14 days: 1
  Relative cell counts 14 days: 0.0000
  Absolute cell counts 28 days: 1
  Relative cell counts 28 days: 0.0000

## O=C([O-])c1ccccc1.[Na+] [Sodium Benzoate, sodium benzoate]
P. aeruginosa
  Absolute cell counts 2 days: 9.60E+03
  Relative cell counts 2 days: 0.0026
  Absolute cell counts 7 days: 1
  Relative cell counts 7 days: 0.0000
  Absolute cell counts 14 days: 1
  Relative cell counts 14 days: 0.0000
  Absolute cell counts 28 days: 1
  Relative cell counts 28 days: 0.0000
E. coli [3]
  Absolute cell counts 2 days: 8.70E+05
  Relative cell counts 2 days: 0.1933
  Absolute cell counts 7 days: 9.50E+05
  Relative cell counts 7 days: 0.2111
  Absolute cell counts 14 days: 4.20E+05
  Relative cell counts 14 days: 0.0933
  Absolute cell counts 28 days: 2.40E+04
  Relative cell counts 28 days: 0.0053
S. aureus [4]; substance alone 0.2% w/w
  Absolute cell counts 2 days: 2.20E+04
  Relative cell counts 2 days: 0.0037
  Absolute cell counts 7 days: 1
  Relative cell counts 7 days: 0.0000
  Absolute cell counts 14 days: 1
  Relative cell counts 14 days: 0.0000
  Absolute cell counts 28 days: 1
  Relative cell counts 28 days: 0.0000
A. brasiliensis; substance alone 0.2% w/w
  Absolute cell counts 2 days: 8.00E+04
  Relative cell counts 2 days: 0.0800
  Absolute cell counts 7 days: 1.10E+04
  Relative cell counts 7 days: 0.0110
  Absolute cell counts 14 days: 3.30E+02
  Relative cell counts 14 days: 0.0003
  Absolute cell counts 28 days: 3.20E+02
  Relative cell counts 28 days: 0.0003
